# Where a SMILES comes first, the peptide text is derived from it.
# Biological target: D(2) dopamine receptor (Bos taurus) (UniProt P20288)
# Assay: Compound was evaluated for its ability to enhance the binding of the dopamine receptor agonist [3H]pramipexole to Dopamine receptor D2 at a concentration of 10E-9 M
# Chain of D(2) dopamine receptor (Bos taurus) (P20288 whole entry): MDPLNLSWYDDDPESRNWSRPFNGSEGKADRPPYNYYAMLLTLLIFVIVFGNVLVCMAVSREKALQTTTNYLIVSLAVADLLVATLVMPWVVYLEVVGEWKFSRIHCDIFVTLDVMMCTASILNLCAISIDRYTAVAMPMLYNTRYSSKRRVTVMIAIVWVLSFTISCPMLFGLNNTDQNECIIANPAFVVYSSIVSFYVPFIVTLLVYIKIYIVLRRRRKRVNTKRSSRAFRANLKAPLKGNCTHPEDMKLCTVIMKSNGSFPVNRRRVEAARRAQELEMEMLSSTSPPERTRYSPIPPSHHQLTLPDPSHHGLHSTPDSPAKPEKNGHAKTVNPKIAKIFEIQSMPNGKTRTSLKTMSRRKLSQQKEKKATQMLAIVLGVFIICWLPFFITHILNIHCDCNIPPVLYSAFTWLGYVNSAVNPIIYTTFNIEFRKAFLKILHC
row,SMILES,Binding [%]
1,CC(C)C[C@H](NC(=O)[C@H]1CCNC1)C(=O)NCC(N)=O,107
2,CC(C)C[C@H](NC(=O)[C@@H]1CNC[C@H]1Cc1ccccc1)C(=O)NCC(N)=O,108
3,CC(C)C[C@H](NC(=O)[C@@H]1CCNC1)C(=O)NCC(N)=O,104

# Further lines, results first:
row,Binding [%],SMILES
1,99.6,CC(C)C[C@H](NC(=O)[C@H]1CNC[C@H]1Cc1ccccc1)C(=O)NCC(N)=O
2,109,CC(C)C[C@H](NC(=O)[C@H]1CNC[C@@H]1Cc1ccccc1)C(=O)NCC(N)=O
3,104,CC(C)C[C@H](NC(=O)[C@@H]1CNC[C@@H]1Cc1ccccc1)C(=O)NCC(N)=O
4,109,CC(C)C[C@H](NC(=O)[C@@H]1CCCN1)C(=O)NCC(N)=O (H-Pro-Leu-Gly-NH2)

# From ChEMBL document CHEMBL1130633, “Beta-analogs of PLG (L-prolyl-L-leucyl-glycinamide): ex-chiral pool syntheses and dopamine D2 receptor modulating effects” (Bioorg Med Chem Lett, 1998)
